Assay [1] relates to K562 (human chronic myelogenous leukemia) cells. In words: Cell Titer Glo 2.0 cell viability assay. Type of assay: cell-based. Particulars: Homo sapiens, K562, 72 h, K562 cells, 72 hours, Cell Titer Glo 2.0; read-out: K562 GI50. (In ATP-based viability assays light output follows the ATP content of the culture.)
Assay [2] deals with Target C. In words: RT-qPCR splicing assay panel, Target C canonical junction (CJ) mRNA. It is filed as cell-based, human. As to conditions: Homo sapiens; Table 5 panel; canonical junction qPCR; compound concentration having 50% response in CJ decrease; read-out: Target C IC50 (decrease in CJ mRNA levels). The procedure, abridged:
(§1)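 A673 cells (DMEM/10% FBS) or K562 cells (IMDM/10% FBS) were treated 24 h at 37° C. with 11-point 3-fold dilutions (top 10 uM, ≤0.25% DMSO). Canonical-junction mRNA was quantified in lysates by RT-qPCR, normalized to GAPDH, GUSB or PPIA.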

In assay [3] the test system is SMN2 mRNA. The assay is described as follows: RT-qPCR splicing assay, SMN2 canonical junction (CJ) mRNA. Particulars: Homo sapiens; Table 5 panel; canonical junction qPCR; compound concentration having 50% response in CJ decrease; read-out: SMN2 IC50 (decrease in CJ mRNA levels). Type of assay: cell-based, human. The procedure, abridged: as §1
In assay [4] the test system is HTT mRNA. The assay is described as follows: RT-qPCR splicing assay, HTT canonical junction (CJ) and alternative junction (AJ) mRNA. It is filed as cell-based, human. Particulars: Homo sapiens; for AC50: increase in HTT alternative junction (AJ) mRNA, read-out: HTT AJ AC50. The procedure, abridged: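 Read-out is one-step RT-qPCR on cell lysates detecting the exon-exon junction of each isoform, normalized to a housekeeping gene (PPIA in A673, GAPDH or GUSB in K562).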

[5] abbreviates: decrease in HTT canonical junction (CJ) mRNA, RT-qPCR, read-out: HTT CJ IC50.
Where [6] appears, read: Table 5 panel, canonical junction qPCR, compound concentration having 50% response in CJ decrease, read-out: HTT IC50 (decrease in CJ mRNA levels).

Each structure is given as a SMILES string. Structures can show the parent of a compound that is named as a salt. Where two headings read alike, the source gives them in different places.

Results on 19 compounds are retold here after patent publication US20250332173A1, “COMPOUNDS AND METHODS FOR MODULATING NUCLEIC ACID SPLICING” (REMIX THERAPEUTICS INC., priority 2021, published 2025).

As a reminder, the GI50 is the concentration at which growth is held to half of that of the control. As a reminder, the IC50 is the concentration that gives 50% inhibition. A word on the AC50: it is the midpoint of the concentration-response curve, whichever way the signal moves. For the compound `Cc1cc(-c2ccc3c(=O)n(N4CCN(C)CC4)cnc3c2)cc2cn(C)nc12` [Compound 175], the concentration for 50% growth inhibition (GI50) in assay [1] fell in the range of 1 to 10 µM. Moreover, the IC50 in assay [2] is greater than 10 µM; in assay [3], 1000 to 10000 nM; in assay [4] (setting [5]), 1000 to 10000 nM; in assay [4] (setting [6]), 1000 to 10000 nM. Also, the AC50 in assay [4] (RT-qPCR) was greater than 10000 nM.
Take `Cc1cn2nc(-c3ccc4c(=O)n(C5CCN(C)CC5)cnc4c3)cc(C)c2n1` [Compound 176]: the GI50 in assay [1] lay within 1 to 10 µM. The IC50 in assay [2] fell in the range of 1 to 10 µM; in assay [3], 100 to 1000 nM; in assay [4] (setting [5]) it was 1000 to 10000 nM; in assay [4] (setting [6]), 1000 to 10000 nM. For the same compound, in assay [4] (RT-qPCR), the AC50 fell in the range of 1000 to 10000 nM.
Turning to `CN1CCC(c2ccc3c(=O)n(-c4ccc5nn(C)cc5c4)cnc3c2)CC1` [Compound 177], the GI50 in assay [1] was greater than 10 µM. In addition, the IC50 in assay [2] is 1 to 10 µM; in assay [3] it was greater than 10000 nM; in assay [4] (setting [5]) it was greater than 10000 nM; in assay [4] (setting [6]), greater than 10000 nM. Further, in assay [4] (RT-qPCR), the AC50 is greater than 10000 nM.
For the compound `CN1CCN(c2ccc3c(=O)n(-c4ccc5cn(C)nc5c4)cnc3c2)CC1` [Compound 178], the GI50 in assay [1] is greater than 10 µM. Besides, the IC50 was greater than 10 µM in assay [2], greater than 10000 nM in assay [3], greater than 10000 nM in assay [4] (setting [5]) and greater than 10000 nM in assay [4] (setting [6]). Further, the half-maximal activity concentration (AC50) in assay [4] (RT-qPCR) is greater than 10000 nM.
For `Cc1cc(-c2ccc3c(=O)n(C4CC(C)(C)NC(C)(C)C4)cnc3n2)cc2cn(C)nc12` [Compound 179], the GI50 in assay [1] was greater than 10 µM. Further, the half-inhibitory concentration (IC50) in assay [2] was greater than 10 µM; in assay [3], 1000 to 10000 nM; in assay [4] (setting [5]) it was greater than 10000 nM; in assay [4] (setting [6]) it was greater than 10000 nM. In assay [4] (RT-qPCR), the AC50 was greater than 10000 nM.
Regarding `CN(c1ccc2c(=O)n(-c3ccc4nn(C)cc4c3)cnc2c1)C1CCNCC1` [Compound 180], in assay [1], the 50% growth inhibitory concentration (GI50) is greater than 10 µM. Besides, the IC50 in assay [2] is 1 to 10 µM; in assay [3] it was greater than 10000 nM; in assay [4] (setting [5]), greater than 10000 nM; in assay [4] (setting [6]) it was greater than 10000 nM. For the same compound, the AC50 in assay [4] (RT-qPCR) was greater than 10000 nM.
As for `Cc1cn2nc(-c3ccc4c(=O)n(C5CCNCC5)cnc4c3)cc(C)c2n1` [Compound 181], in assay [1], the GI50 lay in the range of 0.1 to 1 µM. In addition, the half-maximal inhibitory concentration (IC50) in assay [2] was 0.1 to 1 µM; in assay [3], less than 100 nM; in assay [4] (setting [5]), 100 to 1000 nM; in assay [4] (setting [6]), 100 to 1000 nM. For the same compound, the AC50 in assay [4] (RT-qPCR) is 100 to 1000 nM.
Take `Cc1cc(-c2ccc3c(=O)n(C4CCNC5(CC5)C4)ncc3c2)cc2cn(C)nc12` (stereo not drawn) [Compound 512]: the GI50 in assay [1] was 1 to 10 µM. In addition, the IC50 in assay [2] fell in the range of 1 to 10 µM; in assay [3], 100 to 1000 nM; in assay [4] (setting [5]), 1000 to 10000 nM; in assay [4] (setting [6]), 100 to 1000 nM. Also, the AC50 in assay [4] (RT-qPCR) was in the range of 100 to 1000 nM.
Turning to `Cc1nc2c(C)cc(-c3ccc4c(=O)n(C5CCNC6(CC6)C5)ncc4c3)cc2o1` (stereo not drawn) [Compound 513], in assay [1], the GI50 lay in the range of 1 to 10 µM. The IC50 lay within 1 to 10 µM in assay [2], 100 to 1000 nM in assay [3], 100 to 1000 nM in assay [4] (setting [5]) and 100 to 1000 nM in assay [4] (setting [6]). In assay [4] (RT-qPCR), the AC50 lay in the range of 100 to 1000 nM.
Regarding `COc1cc(-c2ccc3c(=O)n(C4CCNCC4)ccc3c2)nn2cc(C)nc12` [Compound 514, 6-(8-methoxy-2-methyl-imidazo[1,2-b]pyridazin-6-yl)-2-(4-piperidyl) isoquinolin-1-one; hydrochloride], the GI50 in assay [1] was less than 0.1 µM. In addition, the IC50 in assay [2] is less than 0.1 µM; in assay [3] it was less than 100 nM; in assay [4] (setting [5]) it was less than 100 nM; in assay [4] (setting [6]), less than 100 nM. Besides, the AC50 in assay [4] (RT-qPCR) is less than 100 nM.
In the case of `Cc1cn2nc(-c3ccc4c(=O)n(C5CCN(CCF)CC5)ncc4c3)cc(C)c2n1` [Compound 515], the GI50 in assay [1] lay within 1 to 10 µM. Further, the IC50 is 1 to 10 µM in assay [2], less than 100 nM in assay [3], 100 to 1000 nM in assay [4] (setting [5]) and 100 to 1000 nM in assay [4] (setting [6]). For the same compound, in assay [4] (RT-qPCR), the AC50 was in the range of 100 to 1000 nM.
For `Cc1cn2nc(-c3ccc4c(=O)n(C5CCNCC5)ccc4c3)cc(C(=O)O)c2n1` [Compound 516, 2-methyl-6-[1-oxo-2-(4-piperidyl)-6-isoquinolyl]imidazo[1,2-b]pyridazine-8-carboxylic acid], the GI50 in assay [1] fell in the range of 1 to 10 µM. Moreover, the IC50 in assay [2] is 1 to 10 µM; in assay [3] it was 1000 to 10000 nM; in assay [4] (setting [5]) it was 1000 to 10000 nM; in assay [4] (setting [6]) it was 1000 to 10000 nM. Further, the half-maximal activity concentration (AC50) in assay [4] (RT-qPCR) lay within 1000 to 10000 nM.
Take `COC(=O)c1cc(-c2ccc3c(=O)n(C4CCNCC4)ccc3c2)nn2cc(C)nc12` [Compound 517, methyl 2-methyl-6-[1-oxo-2-(4-piperidyl)-6-isoquinolyl]imidazo[1,2-b]pyridazine-8-carboxylate]: the GI50 in assay [1] was in the range of 1 to 10 µM. Further, the IC50 is 1 to 10 µM in assay [2], less than 100 nM in assay [3], 1000 to 10000 nM in assay [4] (setting [5]) and 1000 to 10000 nM in assay [4] (setting [6]). For the same compound, the AC50 in assay [4] (RT-qPCR) fell in the range of 1000 to 10000 nM.
In the case of `CNC(=O)c1cc(-c2ccc3c(=O)n(C4CCNCC4)ccc3c2)nn2cc(C)nc12` [Compound 518, N, 2-dimethyl-6-[1-oxo-2-(4-piperidyl)-6-isoquinolyl]imidazo[1,2-b]pyridazine-8-carboxamide], the GI50 in assay [1] was in the range of 1 to 10 µM. For the same compound, the IC50 is greater than 10 µM in assay [2], 100 to 1000 nM in assay [3], greater than 10000 nM in assay [4] (setting [5]) and greater than 10000 nM in assay [4] (setting [6]). The AC50 in assay [4] (RT-qPCR) was greater than 10000 nM.
In the case of `Cc1cn2nc(-c3ccc4c(=O)n(C5CCNCC5)ccc4c3)cc(Oc3ccccc3)c2n1` [Compound 519, 6-(2-methyl-8-phenoxy-imidazo[1,2-b]pyridazin-6-yl)-2-(4-piperidyl)isoquinolin-1-one], in assay [1], the GI50 is less than 0.1 µM. Besides, the IC50 is less than 0.1 µM in assay [2], less than 100 nM in assay [3], less than 100 nM in assay [4] (setting [5]) and less than 100 nM in assay [4] (setting [6]). In addition, the AC50 in assay [4] (RT-qPCR) is less than 100 nM.
On to `Cc1cn2nc(-c3ccc4c(=O)n(C5CCNCC5)ccc4c3)cc(CC#N)c2n1` [Compound 520, 2-[2-methyl-6-[1-oxo-2-(4-piperidyl)-6-isoquinolyl]imidazo[1,2-b]pyridazin-8-yl]acetonitrile], for which, in assay [1], the GI50 lay within 1 to 10 µM. For the same compound, the IC50 in assay [2] is 1 to 10 µM; in assay [3] it was less than 100 nM; in assay [4] (setting [5]), 100 to 1000 nM; in assay [4] (setting [6]), 100 to 1000 nM. Moreover, the AC50 in assay [4] (RT-qPCR) lay within 100 to 1000 nM.
In the case of `Cn1ccc2c(cnn2-c2ccc3c(=O)n(C4CCNCC4)ccc3c2)c1=O` [Compound 521], the GI50 in assay [1] was 1 to 10 µM. The IC50 fell in the range of 1 to 10 µM in assay [2], 1000 to 10000 nM in assay [3], 1000 to 10000 nM in assay [4] (setting [5]) and 1000 to 10000 nM in assay [4] (setting [6]). Also, in assay [4] (RT-qPCR), the AC50 lay in the range of 1000 to 10000 nM.
Consider `Cn1ccc2nn(-c3ccc4c(=O)n(C5CCNCC5)ccc4c3)cc2c1=O` [Compound 522, 6-{5-methyl-4-oxopyrazolo[4,3-c]pyridin-2-yl}-2-(piperidin-4-yl)isoquinolin-1-one], for which, in assay [1], the GI50 was in the range of 1 to 10 µM. The IC50 in assay [2] was greater than 10 µM; in assay [3] it was 1000 to 10000 nM; in assay [4] (setting [5]), greater than 10000 nM; in assay [4] (setting [6]), greater than 10000 nM. For the same compound, the concentration at half-maximal activity (AC50) in assay [4] (RT-qPCR) is greater than 10000 nM.
In the case of `Cc1cn2nc(-c3ccc4c(=O)n(C5CCNCC5)ccc4c3)cc(C(N)=O)c2n1` [Compound 523, 2-methyl-6-[1-oxo-2-(4-piperidyl)-6-isoquinolyl]imidazo[1,2-b]pyridazine-8-carboxamide], the GI50 in assay [1] is 1 to 10 µM. The IC50 in assay [2] is greater than 10 µM; in assay [3], 100 to 1000 nM; in assay [4] (setting [5]), 1000 to 10000 nM; in assay [4] (setting [6]) it was greater than 10000 nM. Moreover, the AC50 in assay [4] (RT-qPCR) was greater than 10000 nM.
